{"source": "ChEMBL document CHEMBL1201862", "about": "“PubChem BioAssay data set” (2004)", "assay_in_all_cases": "NCI-60 cell line screen, 48 h", "key": {"786-0": {"tested_on": "786-0"}, "A498": {"tested_on": "A498"}, "A549": {"tested_on": "A549"}, "ACHN": {"tested_on": "ACHN"}, "CAKI-1": {"tested_on": "CAKI-1"}, "CCRF-CEM": {"tested_on": "CCRF-CEM"}, "COLO 205": {"tested_on": "COLO 205"}, "DLD-1": {"tested_on": "DLD-1"}, "DMS-114": {"tested_on": "DMS-114"}, "DMS-273": {"tested_on": "DMS-273"}, "HCC 2998": {"tested_on": "HCC 2998"}, "HCT-116": {"tested_on": "HCT-116"}, "HCT-15": {"tested_on": "HCT-15"}, "HL-60": {"tested_on": "HL-60"}, "HOP-18": {"tested_on": "HOP-18"}, "HOP-62": {"tested_on": "HOP-62"}, "HOP-92": {"tested_on": "HOP-92"}, "HT-29": {"tested_on": "HT-29"}, "IGROV-1": {"tested_on": "IGROV-1"}, "K562": {"tested_on": "K562"}, "KM-20L2": {"tested_on": "KM-20L2"}, "LOX IMVI": {"tested_on": "LOX IMVI"}, "LXFL 529": {"tested_on": "LXFL 529"}, "M14": {"tested_on": "M14"}, "M19-MEL": {"tested_on": "M19-MEL"}, "MOLT-4": {"tested_on": "MOLT-4"}, "Malme-3M": {"tested_on": "Malme-3M"}, "NCI-H226": {"tested_on": "NCI-H226"}, "NCI-H23": {"tested_on": "NCI-H23"}, "NCI-H460": {"tested_on": "NCI-H460"}, "OVCAR-3": {"tested_on": "OVCAR-3"}, "OVCAR-4": {"tested_on": "OVCAR-4"}, "OVCAR-5": {"tested_on": "OVCAR-5"}, "OVCAR-8": {"tested_on": "OVCAR-8"}, "RPMI-8226": {"tested_on": "RPMI-8226"}, "SF-268": {"tested_on": "SF-268"}, "SF-295": {"tested_on": "SF-295"}, "SK-MEL-28": {"tested_on": "SK-MEL-28"}, "SK-MEL-5": {"tested_on": "SK-MEL-5"}, "SK-OV-3": {"tested_on": "SK-OV-3"}, "SN12C": {"tested_on": "SN12C"}, "SNB-19": {"tested_on": "SNB-19"}, "SR": {"tested_on": "SR"}, "SW-620": {"tested_on": "SW-620"}, "TK-10": {"tested_on": "TK-10"}, "U-251": {"tested_on": "U-251"}, "UACC-257": {"tested_on": "UACC-257"}, "UACC-62": {"tested_on": "UACC-62"}, "UO-31": {"tested_on": "UO-31"}}, "note": "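Interpolation was linear, between the two tested concentrations surrounding the appropriate level; five concentrations were tested over 48 hours in 96-well plates. The concentration for 50% growth inhibition is given as GI50.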 Active and inactive are the calls of the source. Cut-off read from the data, not from the text of the source: active = GI50 up to about 1.1 µM and inactive = higher.", "data": [{"smiles": "Cc1ccc(S(=O)(=O)OCC23CCC(C2)C2CC23)cc1", "note": "(centres undefined)", "values": [{"measurement": "GI50", "setting": "786-0", "value": "> 100 µM (inactive)"}, {"measurement": "GI50", "setting": "A498", "value": "> 100 µM (inactive)"}, {"measurement": "GI50", "setting": "A549", "value": "> 100 µM (inactive)"}, {"measurement": "GI50", "setting": "ACHN", "value": "> 100 µM (inactive)"}, {"measurement": "GI50", "setting": "CAKI-1", "value": "> 100 µM (inactive)"}, {"measurement": "GI50", "setting": "CCRF-CEM", "value": "> 100 µM (inactive)"}, {"measurement": "GI50", "setting": "COLO 205", "value": "> 100 µM (inactive)"}, {"measurement": "GI50", "setting": "DLD-1", "value": "> 100 µM (inactive)"}, {"measurement": "GI50", "setting": "DMS-114", "value": "> 100 µM (inactive)"}, {"measurement": "GI50", "setting": "DMS-273", "value": "> 100 µM (inactive)"}, {"measurement": "GI50", "setting": "HCC 2998", "value": "> 100 µM (inactive)"}, {"measurement": "GI50", "setting": "HCT-116", "value": "> 100 µM (inactive)"}, {"measurement": "GI50", "setting": "HCT-15", "value": "> 100", "unit": "µM"}, {"measurement": "GI50", "setting": "HL-60", "value": "31.6 µM (inactive)"}, {"measurement": "GI50", "setting": "HOP-18", "value": "> 100 µM (inactive)"}, {"measurement": "GI50", "setting": "HOP-62", "value": "> 100 µM (inactive)"}, {"measurement": "GI50", "setting": "HOP-92", "value": "26 µM (inactive)"}, {"measurement": "GI50", "setting": "HT-29", "value": "> 100 µM (inactive)"}, {"measurement": "GI50", "setting": "IGROV-1", "value": "> 100 µM (inactive)"}, {"measurement": "GI50", "setting": "K562", "value": "> 100 µM (inactive)"}, {"measurement": "GI50", "setting": "KM-20L2", "value": "> 100 µM (inactive)"}, {"measurement": "GI50", "setting": "LOX IMVI", "value": "> 100 µM (inactive)"}, {"measurement": "GI50", "setting": "LXFL 529", "value": "> 100 µM (inactive)"}, {"measurement": "GI50", "setting": "M14", "value": "> 100 µM (inactive)"}, {"measurement": "GI50", "setting": "M19-MEL", "value": "> 100 µM (inactive)"}, {"measurement": "GI50", "setting": "MOLT-4", "value": "> 100 µM (inactive)"}, {"measurement": "GI50", "setting": "Malme-3M", "value": "> 100 µM (inactive)"}, {"measurement": "GI50", "setting": "NCI-H226", "value": "> 100 µM (inactive)"}, {"measurement": "GI50", "setting": "NCI-H23", "value": "> 100 µM (inactive)"}, {"measurement": "GI50", "setting": "NCI-H460", "value": "> 100 µM (inactive)"}, {"measurement": "GI50", "setting": "OVCAR-3", "value": "> 100 µM (inactive)"}, {"measurement": "GI50", "setting": "OVCAR-4", "value": "> 100 µM (inactive)"}, {"measurement": "GI50", "setting": "OVCAR-5", "value": "> 100 µM (inactive)"}, {"measurement": "GI50", "setting": "OVCAR-8", "value": "> 100 µM (inactive)"}, {"measurement": "GI50", "setting": "RPMI-8226", "value": "90.4 µM (inactive)"}, {"measurement": "GI50", "setting": "SF-268", "value": "> 100 µM (inactive)"}, {"measurement": "GI50", "setting": "SF-295", "value": "> 100 µM (inactive)"}, {"measurement": "GI50", "setting": "SK-MEL-28", "value": "> 100 µM (inactive)"}, {"measurement": "GI50", "setting": "SK-MEL-5", "value": "> 100 µM (inactive)"}, {"measurement": "GI50", "setting": "SK-OV-3", "value": "> 100 µM (inactive)"}, {"measurement": "GI50", "setting": "SN12C", "value": "> 100 µM (inactive)"}, {"measurement": "GI50", "setting": "SNB-19", "value": "> 100 µM (inactive)"}, {"measurement": "GI50", "setting": "SR", "value": "> 100 µM (inactive)"}, {"measurement": "GI50", "setting": "SW-620", "value": "> 100 µM (inactive)"}, {"measurement": "GI50", "setting": "TK-10", "value": "> 100 µM (inactive)"}, {"measurement": "GI50", "setting": "U-251", "value": "> 100 µM (inactive)"}, {"measurement": "GI50", "setting": "UACC-257", "value": "52.1 µM (inactive)"}, {"measurement": "GI50", "setting": "UACC-62", "value": "> 100 µM (inactive)"}, {"measurement": "GI50", "setting": "UO-31", "value": "> 100 µM (inactive)"}]}]}
